As a reminder, the IC50 is the concentration that gives 50% inhibition.

The values that follow come from ChEMBL document CHEMBL4421722, “Inhibitors of protein prenyltransferases” (2013).

Assay [1] has as its system K562. The assay is described as follows: Induction of cell cycle arrest in human K562 cells assessed as reduction in accumulation at S phase incubated for 48 hrs by flow cytometry. The class given is functional, cell-based. On the technique in general: A flow cytometer gives signals particle by particle.
The subject of assay [2] is K562. The assay is described as follows: Induction of cell cycle arrest in human K562 cells assessed as accumulation at G1 phase incubated for 48 hrs by flow cytometry. The format is functional, cell-based.
For another assay, the system named is CFPAC-1. The assay is described as follows: Antiproliferative activity against human CFPAC-1 cells assessed as inhibition of cell proliferation incubated for 72 hrs by CCK8 assay. The class given is functional, cell-based. The conditions noted are these: CFPAC-1, 72 h. On the technique in general: Tetrazolium dyes change colour on reduction, which living cells bring about.

In the next assay the test system is HPAC. The assay is described as follows: Antiproliferative activity against human HPAC cells assessed as inhibition of cell proliferation incubated for 72 hrs by CCK8 assay. The class given is functional, cell-based.
In a further assay the test system is MCF7. The assay is described as follows: Antiproliferative activity against human MCF7 cells assessed as inhibition of cell proliferation incubated for 6 days by CCK8 assay. The format is functional, cell-based.
In another assay the test system is ASPC1. In words: Antiproliferative activity against human AsPC1 cells assessed as inhibition of cell proliferation incubated for 6 days by CCK8 assay. The class given is functional, cell-based. The conditions noted are these: ASPC1, 144 h.
The next assay deals with PANC-1. The assay is described as follows: Antiproliferative activity against human PANC1 cells assessed as inhibition of cell proliferation incubated for 72 hrs by CCK8 assay. The class given is functional, cell-based. The conditions noted are these: PANC-1, 72 h.
The test system of another assay is Jurkat. In words: Antiproliferative activity against human Jurkat cells assessed as inhibition of cell proliferation incubated for 72 hrs by CCK8 assay. The class given is functional, cell-based.
The next assay has as its system BT-474. The assay is described as follows: Antiproliferative activity against human BT474 cells assessed as inhibition of cell proliferation incubated for 72 hrs by CCK8 assay. The format is functional, cell-based. To be noted: BT-474, 72 h.
In another assay the test system is MIA PaCa-2. The assay is described as follows: Antiproliferative activity against human MIAPaCa2 cells assessed as inhibition of cell proliferation incubated for 72 hrs by CCK8 assay. The format is functional, cell-based. The conditions noted are these: MIA PaCa-2, 72 h.
The subject of another assay is Capan-2. In words: Antiproliferative activity against human Capan2 cells assessed as inhibition of cell proliferation incubated for 72 hrs by CCK8 assay. The conditions noted are these: Capan-2, 72 h. The format is functional, cell-based.
Assay [3] in a line: Competitive inhibition of rat recombinant geranylgeranyltransferase type I expressed in Escherichia coli assessed as reduction in geranylgeranylation of RhoA incubated for 30 mins in presence of varying level of [3H]GGPP and fixed RhoA levels by scintillation counting assay relative to control.
Assay [4] in a line: Antiproliferative activity against human SEMK2 cells assessed as inhibition of cell proliferation incubated for 6 days by CCK8 assay. The format is functional, cell-based. The conditions noted are these: SEMK2, 144 h.

Molecules are shown by their SMILES.

In the case of `Cc1ccccc1S(=O)(=O)N1[C@@H](c2ccc(Cl)cc2)C(COCC(=O)N[C@@H](Cc2ccccc2)C(N)=O)=C[C@H]1C(C)(C)C`, the Activity result with K562 [1] and with K562 [2] was “Dose-dependent effect” in each case. The IC50 is 8.1 µM in the assay with CFPAC-1; 11.7 µM in the assay on HPAC; 6.4 µM in the assay with MCF7 (MCF7, 144 h); greater than 20 µM in the assay on ASPC1; 12.6 µM in the assay on PANC-1; 1.3 µM with Jurkat. Also, the IC50 in the assay on BT-474 is 11.6 µM; in the assay on MIA PaCa-2 it was 13.9 µM; with Capan-2, 11.1 µM; in assay [3], 12.5 µM; in [4], 14.1 µM. Also, the inhibition result with MCF7 was “Dose-dependent effect”.
